Test results: patent US8178506B2, “Oligomeric compounds and compositions for use in modulation of small non-coding RNAs” (Regulus Therapeutics Inc., priority 2003, dated 2012)

Tested on: mir-143 binding site within the coding sequence of ERK5
Experiment: pGL3-ERK5-cds luciferase assays in HeLa cells
Assay type: cell-based, human
Settings: for luciferase expression: HeLa cells, 24 hours
Procedure: An expression system based on the pGL3-Control (Promega Corp., Madison Wis.) reporter vector and comprising predicted miRNA binding sites was used in transient transfections of HeLa cells with plasmids expressing oligomeric compounds mimicking miRNAs, pre-miRNAs or pri-miRNAs in order to assess the ability of these miRNA mimics to bind and regulate the expression of the luciferase reporter. The effect of increasing the copy number of the miRNA-binding site in the target was also tested by including multiple binding sites in artificial reporter constructs. It is understood that the presence of multiple miRNA-binding sites in a target can include binding sites for different miRNAs.
The following reporter plasmids were constructed by cloning the specified fragment into the XbaI site of the pGL3-control plasmid, placing the potential miRNA-binding site in the 3′-UTR of the luciferase reporter: The reporter plasmid pGL3-bulge(×3) contains three contiguous copies of the sequence ([…]; herein incorporated as SEQ ID NO: 874) which represents a sequence complementary to the mir-143 miRNA except that it is missing 2 nucleotides such that the mir-143 miRNA is presumed to adopt a bulged structure when it hybridizes to this target sequence. The pGL3-GLO1 reporter plasmid contains a DNA fragment comprising the 3′-UTR of the GLO1 sequence; this fragment was PCR-amplified using a primer beginning at nucleotide number 621 of the GLO1 sequence (GenBank Accession NM_006708.1, SEQ ID NO: 821) and the downstream primer hybridizing to the poly A tail. The pGL3-PP2A reporter plasmid contains a DNA fragment comprising the 3′-UTR of the PP2A gene; this fragment was PCR-amplified using a primer beginning at nucleotide number 921 of the PP2A sequence (GenBank Accession NM_004156.1) and the downstream primer hybridizing to the poly A tail. The reporter plasmid pGL3-ERK5-3′-UTR(×1) contains one copy of the sequence […] (herein incorporated as SEQ ID NO: 875), found in the 3′-UTR of ERK5 and predicted by Lewis, et al. to be bound by the mir-143 miRNA, and the reporter plasmid pGL3-ERK5-3′UTR(×3) has three contiguous copies of this sequence. The reporter plasmid pGL3-ERK5-3′UTR(ext) contains one copy of the sequence […] (herein incorporated as SEQ ID NO: 876), which includes an additional ten nucleotides at either end of the mir-143 binding site in 3′-UTR of ERK5 predicted by Lewis, et al. (Lewis et al., Cell, 2003, 115, 787-798). The plasmids pGL3-ERK5-cds(×1), pGL3-ERK5-cds(×2), pGL3-ERK5-cds(×3), and pGL3-ERK5-cds(×5) contain one, two, three or five contiguous copies, respectively, of the novel mir-143 binding site ([…]; herein incorporated as SEQ ID NO: 877) we identified within the coding sequence of ERK5. The unmodified pGL3-Control luciferase reporter vector was used as a negative control, and the pGL3-mir-143 sensor reporter plasmid was used as a positive control.
HeLa cells were routinely cultured and passaged as described. In some embodiments, HeLa cells were transfected with 0.05 μg of the relevant pGL3-sensor plasmid and 0.01 μg pRL-CMV plasmid. Additionally, in some embodiments, cells were treated at various dosages (11 nM, 33 nM, and 100 nM) with the following oligomeric compound mimics: 1) ds-mir-143, or 2) ds-Control as described. In accordance with methods described in Example 12, a luciferase assay was performed 24-hours after transfection. The results, shown in Tables 40 and 41, are an average of three trials. Data are presented as percent untreated control (luciferase plasmid only, not treated with oligomeric compound) luciferase expression, normalized to pRL-CMV levels.

ds-mir-143: double-stranded RNA of ISIS 342199 hybridized to its perfect complement ISIS 342200 (sense UGAGAUGAAGCACUGUAGCUCA; antisense UGAGCUACAGUGCUUCAUCUCA; RNA, backbone not given here)
luciferase expression from pGL3-ERK5-cds(×1) or pGL3-ERK5-cds(×2) (HeLa, 100 nM): did reduce luciferase expression
luciferase activity from pGL3-ERK5-cds(×3) or pGL3-ERK5-cds(×5) (HeLa, 11, 33 and 100 nM): reduction in luciferase activity
luciferase activity from pGL3-ERK5-cds(×5), dose response (HeLa, 11, 33 and 100 nM): dose-responsiveness
luciferase activity from pGL3-ERK5-cds(×1) or pGL3-ERK5-cds(×2) (HeLa, 11- or 33 nM): did not appear to inhibit luciferase activity
luciferase expression (Table 41, pGL3-ERK5-cds(x1), 11 nM): 101.3 percent untreated control
luciferase expression (Table 41, pGL3-ERK5-cds(x1), 33 nM): 115.4 percent untreated control
luciferase expression (Table 41, pGL3-ERK5-cds(x1), 100 nM): 77.4 percent untreated control
luciferase expression (Table 41, pGL3-ERK5-cds(x2), 11 nM): 92.7 percent untreated control
luciferase expression (Table 41, pGL3-ERK5-cds(x2), 33 nM): 113.8 percent untreated control
luciferase expression (Table 41, pGL3-ERK5-cds(x2), 100 nM): 63.6 percent untreated control
luciferase expression (Table 41, pGL3-ERK5-cds(x3), 11 nM): 73.5 percent untreated control
luciferase expression (Table 41, pGL3-ERK5-cds(x3), 33 nM): 77.9 percent untreated control
luciferase expression (Table 41, pGL3-ERK5-cds(x3), 100 nM): 49.4 percent untreated control
luciferase expression (Table 41, pGL3-ERK5-cds(x5), 11 nM): 49.4 percent untreated control
luciferase expression (Table 41, pGL3-ERK5-cds(x5), 33 nM): 44.5 percent untreated control
luciferase expression (Table 41, pGL3-ERK5-cds(x5), 100 nM): 23.9 percent untreated control
